From patent publication US20240133897A1, “COMPOSITIONS AND METHODS FOR IDENTIFYING AND MODULATING THROMBOTIC CONDITIONS IN A CANCER PATIENT” (Beth Israel Deaconess Medical Center, Inc., priority 2019, published 2024)

Legend:
HPAF-II cells [1] = experiment: Flow cytometry of TF-bearing extracellular vesicles from HPAF-II cells after UPR induction; assay type: cell-based; details: for increase in the generation of TF-bearing EVs: HPAF-II cells following UPR induction, flow cytometry
From the text: (§1) The unfolded protein response (UPR) is associated with malignant transformation in pancreatic cancer, but whether or not activation of the UPR is linked to cancer thrombosis has not previously been evaluated. To determine whether UPR signaling functions in the prothrombotic transformation of pancreatic cancer, pancreatic adenocarcinoma cells (HPAF-II cells) were exposed to three UPR inducers (tunicamycin, triptolide and thapsigargin) that act via independent mechanisms. […] Release of thrombogenic material was inhibited by siRNA-mediated knockdown of UPR components including IRE1α (80%±3% decrease) or PERK (60%±10% decrease). […] Apoptosis as detected by caspase-3 cleavage was not observed under these conditions.

HPAF-II cells [2] = experiment: Thrombin generation by material released from HPAF-II cells after UPR induction; assay type: cell-based; details: for decrease in thrombin generation (release of thrombogenic material): HPAF-II cells, UPR induced, chemical inhibition or siRNA knockdown of UPR components; for increase in thrombin generation in pelleted material: pancreatic adenocarcinoma HPAF-II cells exposed to UPR inducers, supernatant pelleted material
From the text: as §1

Compound: C[C@H]1CCC/C=C/[C@@H]2C[C@H](O)C[C@H]2[C@H](O)/C=C/C(=O)O1 [Brefeldin A]
- inhibition of UPR-induced generation of TF-bearing EVs (HPAF-II cells [1]; HPAF-II cells, UPR induced): inhibited

Compound: Cn1cc(-c2ccc3c(c2)CCN3C(=O)Cc2cccc(C(F)(F)F)c2)c2c(N)ncnc21 [GSK2606414]
- decrease in thrombin generation (release of thrombogenic material) (HPAF-II cells [2]): 80%±5%

Compound: CN1CCN(C(=O)c2ccc(-c3ccc4c(C=O)c(O)ccc4c3)s2)CC1 [MKC-3946]
- decrease in thrombin generation (release of thrombogenic material) (HPAF-II cells [2]): 70%±10%

Compound: C/C=C(/C)C(=O)O[C@H]1C(C)=C2[C@H]([C@@H]1OC(=O)CCCCCCC)[C@@](C)(OC(C)=O)C[C@H](OC(=O)CCC)[C@@]1(O)[C@H]2OC(=O)[C@@]1(C)O [thapsigargin]
- increase in thrombin generation in pelleted material (HPAF-II cells [2]): 3 fold
- increase in the generation of TF-bearing EVs (HPAF-II cells [1]): 3 fold

Compound: CC(C)[C@]12O[C@H]1[C@@H]1O[C@]13[C@]1(O[C@H]1C[C@H]1C4=C(CC[C@@]13C)C(=O)OC4)[C@@H]2O [triptolide]
- increase in thrombin generation in pelleted material (HPAF-II cells [2]): 3 fold
- increase in the generation of TF-bearing EVs (HPAF-II cells [1]): 3 fold

Compound: tunicamycin
- increase in thrombin generation in pelleted material (HPAF-II cells [2]): 3 fold
- increase in the generation of TF-bearing EVs (HPAF-II cells [1]): 3 fold
